{"source": "patent US12390451B2", "about": "“Small molecule inhibitor of the JAK family of kinases” (Janssen Pharmaceutica NV, priority 2021, dated 2025)", "assay": "Serum and colonic concentrations in IL-12/IL-18 studies S-1 and S-2", "format": "in vivo, C57BL/6 mice", "settings": "mice, mean±SEM; for concentration at 4 h / concentration at 30 min: C57BL/6, mouse, po; for concentration at 30 min: read-out: Serum 30 min post dosing", "method": "C57BL/6 mice (6 to 8 weeks old) were randomized by weight and assigned to various treatment groups for each of two studies. Mice were challenged intraperitoneally with a combination of IL-12 (250 ng) and IL-18 (1 μg). To examine the effect of compound of Formula I on IL-12/IL-18-induced pSTAT-3 response, groups of mice were orally dosed with compound of Formula I 1 hour prior to IL-12/IL-18 challenge. Three hours after IL-12/IL-18 challenge, mice were euthanized with CO2 asphyxiation, blood was collected via cardiocentesis for PK analysis, and colon tissues were collected for measuring pSTAT-3 response and drug levels. Mice dosed orally with 20% 2-hydroxypropyl-β-cyclodextrin (HP-β-CD) were used as vehicle controls. Two independent studies (S-1 and S-2) were conducted to examine the effect of compound of Formula I on IL-12/IL-18-induced colonic pSTAT-3 response in mice. […] Serum levels were measured at 30 minutes and 4 hours (terminal) after dosing. […] Colon drug levels were measured 4 hours after dosing. […] Colonic exposure of compound of Formula I increased in a dose-dependent fashion. At 25 mg/kg dose, colonic exposure of compound of Formula I was 30814.5±5552.5 ng/g and 18256.5±4118.8 ng/g tissue. […] Oral dosing of compound of Formula I in mice resulted, as shown in other studies, in minimum systemic exposure and lack of consistent dose-dependent pharmacodynamic responses in the blood.\nData are presented as mean±SEM; N=3-7/group. BLOQ, below limit of quantification; min, minutes; h, hour(s).\nData are presented as mean±SEM; N=3 to 7/group. BLOQ, below limit of quantification; min, minutes; h, hour(s).", "note": "Read-outs that look alike come from different tables or passages of the source."}
{"smiles": "CC(C)(O)CNC(=O)Cc1nc2cnc3[nH]ccc3c2n1[C@H]1CC[C@H](CC#N)CC1", "note": "[Compound of Formula I, 2-(1-((1r,4r)-4-(Cyanomethyl)cyclohexyl)-1,6-dihydroimidazo[4,5-d]pyrrolo[2,3-b]pyridin-2-yl)-N-(2-hydroxy-2-methylpropyl)acetamide]", "values": [{"measurement": "concentration at 4 h", "setting": "colon, 10 mg/kg, S-1, oral 10 mg/kg, read-out: Colon 4 h post dosing", "value": "6600 ± 787", "unit": "ng/g"}, {"measurement": "concentration at 4 h", "setting": "colon, 10 mg/kg, S-2, oral 10 mg/kg, read-out: Colon 4 h post dosing", "value": "10100 ± 1300", "unit": "ng/g"}, {"measurement": "concentration at 4 h", "setting": "colon, 25 mg/kg, S-1, oral 25 mg/kg, read-out: Colon 4 h post dosing", "value": "30800 ± 5550", "unit": "ng/g"}, {"measurement": "concentration at 4 h", "setting": "colon, 25 mg/kg, S-2, oral 25 mg/kg, read-out: Colon 4 h post dosing", "value": "18300 ± 4120", "unit": "ng/g"}, {"measurement": "concentration at 4 h", "setting": "colon, 50 mg/kg, S-1, oral 50 mg/kg, read-out: Colon 4 h post dosing", "value": "59600 ± 11300", "unit": "ng/g"}, {"measurement": "concentration at 4 h", "setting": "colon, 50 mg/kg, S-2, oral 50 mg/kg, read-out: Colon 4 h post dosing", "value": "35600 ± 5560", "unit": "ng/g"}, {"measurement": "concentration at 30 min", "setting": "serum, 10 mg/kg, S-1, oral 10 mg/kg", "value": "7.4 ± 1.4", "unit": "nM"}, {"measurement": "concentration at 30 min", "setting": "serum, 10 mg/kg, S-2, oral 10 mg/kg", "value": "7 ± 0.7", "unit": "nM"}, {"measurement": "concentration at 30 min", "setting": "serum, 25 mg/kg, S-1, oral 25 mg/kg", "value": "21.8 ± 5.5", "unit": "nM"}, {"measurement": "concentration at 4 h", "setting": "serum, 25 mg/kg, S-1, oral 25 mg/kg, read-out: Serum 4 h post dosing", "value": "25 ± 20.3", "unit": "nM"}, {"measurement": "concentration at 30 min", "setting": "serum, 25 mg/kg, S-2, oral 25 mg/kg", "value": "70.5 ± 60.4", "unit": "nM"}, {"measurement": "concentration at 4 h", "setting": "serum, 25 mg/kg, S-2, oral 25 mg/kg, read-out: Serum 4 h post dosing", "value": "45.1 ± 24", "unit": "nM"}, {"measurement": "concentration at 30 min", "setting": "serum, 50 mg/kg, S-1, oral 50 mg/kg", "value": "122 ± 87.2", "unit": "nM"}, {"measurement": "concentration at 4 h", "setting": "serum, 50 mg/kg, S-1, oral 50 mg/kg, read-out: Serum 4 h post dosing", "value": "19.7 ± 8", "unit": "nM"}, {"measurement": "concentration at 30 min", "setting": "serum, 50 mg/kg, S-2, oral 50 mg/kg", "value": "38.8 ± 7.4", "unit": "nM"}, {"measurement": "concentration at 4 h", "setting": "serum, 50 mg/kg, S-2, oral 50 mg/kg, read-out: Serum 4 h post dosing", "value": "131 ± 108", "unit": "nM"}, {"measurement": "Serum 4 h post dosing", "setting": "S-1, oral 10 mg/kg", "value": "BLOQ"}, {"measurement": "Serum 30 min post dosing", "setting": "S-1, oral 10 mg/kg, 10 mg/kg", "value": "7.4 ± 1.4", "unit": "nM"}, {"measurement": "Colon 4 h post dosing", "setting": "S-1, oral 25 mg/kg, 25 mg/kg", "value": "30814.5 ± 5552.5", "unit": "ng/g"}, {"measurement": "Serum 30 min post dosing", "setting": "S-1, oral 25 mg/kg, 25 mg/kg", "value": "21.8 ± 5.5", "unit": "nM"}, {"measurement": "Serum 30 min post dosing", "setting": "S-1, oral 50 mg/kg, 50 mg/kg", "value": "121.7 ± 87.2", "unit": "nM"}, {"measurement": "Serum 4 h post dosing", "setting": "S-2, oral 10 mg/kg", "value": "BLOQ"}, {"measurement": "Serum 30 min post dosing", "setting": "S-2, oral 10 mg/kg, 10 mg/kg", "value": "7.0 ± 0.7", "unit": "nM"}, {"measurement": "Colon 4 h post dosing", "setting": "S-2, oral 25 mg/kg, 25 mg/kg", "value": "18256.5 ± 4118.8", "unit": "ng/g"}, {"measurement": "Serum 30 min post dosing", "setting": "S-2, oral 25 mg/kg, 25 mg/kg", "value": "70.5 ± 60.4", "unit": "nM"}, {"measurement": "Serum 30 min post dosing", "setting": "S-2, oral 50 mg/kg, 50 mg/kg", "value": "38.8 ± 7.4", "unit": "nM"}]}
